According to US11554171B2, “Compounds and methods for the targeted degradation of bromodomain-containing proteins” (Arvinas Operations, Inc., priority 2015, dated 2023):

Tested on: c-myc in 22RV-1 cells
Experiment: Human c-myc ELISA assay
Type: cell-based
Conditions: Homo sapiens; for Emax: 22Rv1, 18 h, read-out: Degradation of BRD4: Maximum inhibition (%) c-Myc ELISA in 22RV1 cells; for DC50: 22Rv1, read-out: Degradation of BRD4: DC50 (uM) c-Myc ELISA in 22RV1 cells
Summary of the method: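 22RV-1 cells treated 18 h with 8-point 1:3 compound dilutions (final top 300 nM or 1 μM, 0.1% DMSO). Cells lysed in RIPA buffer with protease/phosphatase inhibitors, and c-myc protein in cleared lysate quantified by ELISA against a standard curve. DC50 reported for c-myc suppression.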

SMILES | Emax | DC50
Cc1ncsc1-c1ccc(CNC(=O)[C@@H]2C[C@@H](O)CN2C(=O)[C@@H](NC(=O)CCc2ccc(OCCNC(=O)C[C@@H]3N=C(c4ccc(Cl)cc4)c4c(sc(C)c4C)-n4c(C)nnc43)nc2)C(C)(C)C)cc1 [Example 139, (2S,4R)-1-[(2S)-2-{3-[6-(2-{2-[(9S)-7-(4-chlorophenyl)-4,5,13-trimethyl-3-thia-1,8,11,12-tetraazatricyclo[8.3.0.0^2,^6]trideca-2(6),4,7,10,12-pentaen-n-9-yl]acetamido}ethoxy)pyridin-3-yl]propanamido}-3,3-dimethylbutanoyl]-4-hydroxy-N-{[4-(4-methyl-1,3-thiazol-5-yl)phenyl]methyl}pyrrolidine-2-carboxamide] | 98% | < 0.01 µM
Cc1ncsc1-c1ccc(CNC(=O)[C@@H]2C[C@@H](O)CN2C(=O)[C@@H](C(C)C)n2cc(-c3ccnc(O[C@H]4C[C@@H](NC(=O)C[C@@H]5N=C(c6ccc(Cl)cc6)c6c(sc(C)c6C)-n6c(C)nnc65)C4)c3)cn2)cc1 [Example 177, (2S,4R)-4-hydroxy-N-{[4-(4-methyl-1,3-thiazol-5-yl)phenyl]methyl}-1-[(2R)-3-methyl-2-(4-{2-[(1,3-cis)-3-{2-[(9S)-7-(4-chlorophenyl)-4,5,13-trimethyl-3-thia-1,8,11,12-tetraazatricyclo[8.3.0.0^2,^6]trideca-2(6),4,7,10,12-pentaen-9-yl]acetamido}cyclobutoxy]pyridin-4-yl}-1H-pyrazol-1-yl)butanoyl]pyrrolidine-2-carboxamide] | 39.3% | > 1 µM
Cc1ncsc1-c1ccc([C@H](C)NC(=O)[C@@H]2C[C@@H](O)CN2C(=O)[C@@H](NC(=O)CCc2ccnc(O[C@H]3C[C@@H](NC(=O)C[C@@H]4N=C(c5ccc(Cl)cc5)c5c(sc(C)c5C)-n5c(C)nnc54)C3)c2)C(C)(C)C)cc1 [Example 191] | 95% | < 0.01 µM
Cc1ncsc1-c1ccc(CNC(=O)[C@@H]2C[C@@H](O)CN2C(=O)[C@@H](NC(=O)COCCOCCOCCCCOc2ccc3c(c2)c2c(C(N)=O)cc(-c4c(C)noc4C)cc2n3Cc2ccccc2)C(C)(C)C)cc1 [Example 152] | 95% | 0.01 to 0.1 µM
Cc1ncsc1-c1ccc(CNC(=O)[C@@H]2C[C@@H](O)CN2C(=O)[C@@H](NC(=O)COCCOCCOCCNC(=O)C[C@H]2N=C(c3ccc(Cl)cc3)c3c(sc(C)c3C)-n3c(C)nnc32)C(C)(C)C)cc1 [Example 104] | < 5% | > 1 µM
Cc1ncoc1-c1ccc([C@H](C)NC(=O)[C@@H]2C[C@@H](O)CN2C(=O)[C@@H](NC(=O)Cc2ccc(O[C@H]3C[C@H](NC(=O)C[C@@H]4N=C(c5ccc(Cl)cc5)c5c(sc(C)c5C)-n5c(C)nnc54)C3)cc2)C(C)(C)C)cc1 [Example 274] | 95.4% | < 0.01 µM
Cc1ncsc1-c1ccc(CNC(=O)[C@@H]2C[C@@H](O)CN2C(=O)[C@@H](NC(=O)COCCN2CCN(c3ccc([C@@H](C)NC(=O)C[C@@H]4N=C(c5ccc(Cl)cc5)c5c(sc(C)c5C)-n5c(C)nnc54)cc3)CC2)C(C)(C)C)cc1 [Example 59] | 95% | 0.1 to 1 µM
Cc1ncsc1-c1ccc(CNC(=O)[C@@H]2C[C@@H](O)CN2C(=O)[C@@H](C(C)C)n2cc(-c3cccc(O[C@H]4C[C@H](NC(=O)C[C@@H]5N=C(c6ccc(Cl)cc6)c6c(sc(C)c6C)-n6c(C)nnc65)C4)c3)cn2)cc1 [Example 216] | 14.4% | > 1 µM
Cc1ncsc1-c1ccc(CNC(=O)[C@@H]2C[C@@H](O)CN2C(=O)[C@@H](NC(=O)COCCn2cc(-c3ccc([C@@H](C)NC(=O)C[C@@H]4N=C(c5ccc(Cl)cc5)c5c(sc(C)c5C)-n5c(C)nnc54)cc3)cn2)C(C)(C)C)cc1 [Example 78] | 86.7% | 0.1 to 1 µM
Cc1ncsc1-c1ccc([C@H](C)NC(=O)[C@@H]2C[C@@H](O)CN2C(=O)[C@@H](C(C)C)n2cc(-c3ccnc(O[C@H]4C[C@@H](NC(=O)C[C@@H]5N=C(c6ccc(Cl)cc6)c6c(sc(C)c6C)-n6c(C)nnc65)C4)n3)cn2)cc1 [Example 300] | 24% | > 1 µM
Cc1ncsc1-c1ccc([C@H](C)NC(=O)[C@@H]2C[C@@H](O)CN2C(=O)[C@@H](NC(=O)Cc2ccc(-c3cn([C@H](C)CNC(=O)C[C@@H]4N=C(c5ccc(Cl)cc5)c5c(sc(C)c5C)-n5c(C)nnc54)cn3)cc2)C(C)(C)C)cc1 [Example 340] | 92.2% | 0.01 to 0.1 µM
Cc1sc2c(c1C)C(c1ccc(Cl)cc1)=N[C@@H](CC(=O)N[C@H]1C[C@@H](Oc3ccc(OCC(=O)N[C@H](C(=O)N4C[C@H](O)C[C@H]4C(=O)N[C@@H](C)c4ccc(-n5ccnc5C)cc4)C(C)(C)C)cn3)C1)c1nnc(C)n1-2 [Example 259] | 65.7% | 0.1 to 1 µM
Cc1ncsc1-c1ccc([C@H](C)NC(=O)[C@@H]2C[C@@H](O)CN2C(=O)[C@@H](NC(=O)Cc2cccc(C(=O)N3CCN(C(=O)C[C@@H]4N=C(c5ccc(Cl)cc5)c5c(sc(C)c5C)-n5c(C)nnc54)CC3)c2)C(C)(C)C)cc1 [Example 326] | 92% | 0.01 to 0.1 µM
Cc1sc2c(c1C)C(c1ccc(Cl)cc1)=N[C@@H](CC(=O)N[C@H]1C[C@@H](Oc3ccc4oc(C(=O)N[C@H](C(=O)N5C[C@H](O)C[C@H]5C(=O)N[C@@H](C)c5ccc(-c6nccn6C)cc5)C(C)(C)C)cc4c3)C1)c1nnc(C)n1-2 [Example 262] | 55.5% | 0.1 to 1 µM
Cc1ncsc1-c1ccc([C@H](C)NC(=O)[C@@H]2C[C@@H](O)CN2C(=O)[C@@H](NC(=O)[C@H]2CC[C@@H](COCCCNC(=O)C[C@@H]3N=C(c4ccc(Cl)cc4)c4c(sc(C)c4C)-n4c(C)nnc43)O2)C(C)(C)C)cc1 [Example 187] | 98.5% | 0.01 to 0.1 µM
Cc1ncsc1-c1ccc(CNC(=O)[C@@H]2C[C@@H](O)CN2C(=O)[C@@H](NC(=O)COCCN2CCC(c3ccc([C@H](C)NC(=O)C[C@@H]4N=C(c5ccc(Cl)cc5)c5c(sc(C)c5C)-n5c(C)nnc54)cc3)CC2)C(C)(C)C)cc1 [Example 52] | 93% | 0.1 to 1 µM
Cc1ncsc1-c1ccc(CNC(=O)[C@@H]2C[C@@H](O)CN2C(=O)[C@H](C(C)C)N2Cc3ccccc3C2=O)c(OCCOCCOCCOCCNC(=O)C[C@@H]2N=C(c3ccc(Cl)cc3)c3c(sc(C)c3C)-n3c(C)nnc32)c1 [Example 1, (2S,4R)-N-{[2-(2-{2-[2-(2-{2-[(9S)-7-(4-chlorophenyl)-4,5,13-trimethyl-3-thia-1,8,11,12-tetraazatricyclo[8.3.0.0^2,^6]trideca-2(6),4,7,10,12-pentaen-9-yl]acetamido}ethoxy)ethoxy]ethoxy}ethoxy)-4-(4-methyl-1,3-thiazol-5-yl)phenyl]methyl}-4-hydroxy-1-[(2S)-3-methyl-2-(1-oxo-2,3-dihydro-1H-isoindol-2-yl)butanoyl]pyrrolidine-2-carboxamide] | 100% | 0.1 to 1 µM
Cc1ncsc1-c1ccc([C@H](C)NC(=O)[C@@H]2C[C@@H](O)CN2C(=O)[C@@H](NC(=O)COc2ccnc(N3CCN(C(=O)C[C@@H]4N=C(c5ccc(Cl)cc5)c5c(sc(C)c5C)-n5c(C)nnc54)CC3)n2)C(C)(C)C)cc1 [Example 330] | 89% | 0.01 to 0.1 µM
Cc1ncsc1-c1ccc(CNC(=O)[C@@H]2C[C@H](O)CN2C(=O)[C@@H](NC(=O)COCCCOCCNC(=O)C[C@@H]2N=C(c3ccc(Cl)cc3)c3c(sc(C)c3C)-n3c(C)nnc32)C(C)(C)C)cc1 [Example 73] | 21.4% | > 1 µM
Cc1ncsc1-c1ccc(CNC(=O)[C@@H]2C[C@@H](O)CN2C(=O)[C@@H](NC(=O)COCCOCCOCCOc2ccc3c(c2)c2c(C(N)=O)cc(-c4c(C)noc4C)cc2n3Cc2ccccc2)C(C)(C)C)cc1 [Example 83] | 98% | 0.01 to 0.1 µM
Cc1sc2c(c1C)C(c1ccc(Cl)cc1)=N[C@@H](CC(=O)N[C@H]1C[C@@H](Oc3cc(-c4cnn([C@H](C(=O)N5C[C@H](O)C[C@H]5C(=O)N[C@@H](C)c5ccc(-c6nccn6C)cc5)C(C)C)c4)ccn3)C1)c1nnc(C)n1-2 [Example 293] | 9.5% | > 1 µM
Cc1ncsc1-c1ccc(CNC(=O)[C@@H]2C[C@@H](O)CN2C(=O)[C@@H](NC(=O)COCCCOCC#Cc2ccc([C@@H](C)NC(=O)C[C@@H]3N=C(c4ccc(Cl)cc4)c4c(sc(C)c4C)-n4c(C)nnc43)cc2)C(C)(C)C)cc1 [Example 39, (2S,4R)-1-[(2S)-2-(2-{3-[(3-{4-[(1R)-1-{2-[(9S)-7-(4-chlorophenyl)-4,5,13-trimethyl-3-thia-1,8,11,12-tetraazatricyclo[8.3.0.0^2,^6]trideca-2(6),4,7,10,12-pentaen-9-yl]acetamido}-ethyl]phenyl}prop-2-yn-1-yl)oxy]propoxy}acetamido)-3,3-dimethylbutanoyl]-4-hydroxy-N-{[4-(4-methyl-1,3-thiazol-5-yl)phenyl]methyl}pyrrolidine-2-carboxamide] | 99% | 0.01 to 0.1 µM
Cc1ncsc1-c1ccc([C@H](C)NC(=O)[C@@H]2C[C@@H](O)CN2C(=O)[C@@H](NC(=O)Cc2cccc(O[C@H]3C[C@@H](NC(=O)C[C@@H]4N=C(c5ccc(Cl)cc5)c5c(sc(C)c5C)-n5c(C)nnc54)C3)c2)C(C)(C)C)cc1 [Example 204] | 88% | 0.01 to 0.1 µM
Cc1ncsc1-c1ccc(CNC(=O)[C@@H]2C[C@@H](O)CN2C(=O)[C@H](C(C)C)N2Cc3ccccc3C2=O)c(OCCOCCOCCOCCOCCNC(=O)C[C@@H]2N=C(c3ccc(Cl)cc3)c3c(sc(C)c3C)-n3c(C)nnc32)c1 [Example 2] | 41% | > 1 µM
